Test results taken from patent US20060172023A1, “Use of pinolenic acid” (LODERS CROKLAAN B.V., priority 2005, published 2006).

Test system: enteroendocrine STC1-1 cell line
Assay: In-vitro relative CCK release from enteroendocrine cells (Example 4, RIA)
Format: cell-based
Settings: 100 μM in free fatty acid form, 1 hour; for Relative amount of CCK released: measured in 6-fold
Method: The relative CCK release by a number of different compounds was determined in vitro an in-vitro trial to measure the effect of various free fatty acids on CCK release from intestinal cells.
Cells were routinely passaged upon reaching 70-80% confluency by washing the cell layer with PBS and incubating with a solution of trypsin-EDTA. Plating density of 2×10^6 cells by 75 cm^2 was used for routine subculture.
STC1 cells were seeded into 6-well culture plates and incubated with control culture medium, with or without the tested agents, for 1 hour. All agents were tested at a 100 μM concentration in the free fatty acid form. Since fatty acids were diluted into ethanol the effect of ethanol was tested and indicated the baseline CCK levels. […] Effects of bombesin was used as positive control. At the end of incubation the supernatant was collected, centrifuged and immediately frozen at −20° C. for RIA.
Cell viability was checked by microscopic analysis, analyzing DNA content which was measured by fluorometry after extraction of the culture cell contents, and in addition LDH release was measured.
CCK release was measured using a standard CCK RIA and effects of fatty acids were measured in 6-fold.

Structure (SMILES)	Ability to induce CCK (in words)	Relative amount of CCK released	Level of CCK relative to negative control capric acid
CCCC/C=C/C=C/C=C\CCCCCCCC(=O)O [Alpha-eleostearic acid 18:3, Alpha-eleostearic acid]	good inducers of CCK	212	–
CC/C=C\C/C=C\C/C=C\CCCCCCCC(=O)O [Alpha-linolenic acid 18:3, Alpha-linolenic acid]	good inducers of CCK	177	–
CCCCCCCCCC(=O)O [Capric acid]	–	43	–
CCCCC/C=C\C/C=C\C/C=C\CCCCC(=O)O [Gamma-linolenic acid 18:3, Gamma-linolenic acid]	good inducers of CCK	140	–
CCCCCC=CC/C=C\CCCCCCCC(=O)O [Linoleic acid 18:2, cis-9,12 octadecadienoic acid]	not able to induce high amounts of CCK	68	about 2 fold
CCCCCCCC/C=C\CCCCCCCC(=O)O [Oleic acid 18:1, cis-9 octadecenoic acid]	not able to induce high amounts of CCK	90	about 2 fold
CCCC\C=C/C=C/C=C\CCCCCCCC(=O)O [Punicic acid 18:3, Punicic acid]	good inducers of CCK	320	–
CC/C=C\C/C=C\C/C=C\CCCC/C=C\CCCC(=O)O [juniperonic acid]	not able to induce high amounts of CCK	–	about 2 fold
CCCCC/C=C\C/C=C\CCCC/C=C\CCCC(=O)O [sciadonic acid]	not able to induce high amounts of CCK	–	about 2 fold
CCCCCCCCC=CCC/C=C\CCCC(=O)O [taxoleic acid, cis-5,9 octadecadienoic acid]	not able to induce high amounts of CCK	–	about 2 fold
